According to ChEMBL document CHEMBL1133144, “Synthesis and structure-activity relationships of a new class of 1-oxacephem-based human chymase inhibitors” (Bioorg Med Chem Lett, 2000):
pIC50: −log10 of the molar value.

What was measured:
Chymase = molecular target: T1, Chymase (Homo sapiens, UniProt P23946); assay: Inhibitory activity against human serine protease chymase
T1 sequence (P23946 whole entry): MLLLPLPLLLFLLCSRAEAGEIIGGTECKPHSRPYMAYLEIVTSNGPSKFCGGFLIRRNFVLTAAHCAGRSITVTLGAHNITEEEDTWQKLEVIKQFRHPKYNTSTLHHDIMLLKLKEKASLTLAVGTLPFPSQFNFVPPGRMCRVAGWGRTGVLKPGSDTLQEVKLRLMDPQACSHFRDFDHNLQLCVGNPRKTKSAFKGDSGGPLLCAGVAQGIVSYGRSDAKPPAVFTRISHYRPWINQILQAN

Prothrombin = Prothrombin (Homo sapiens, UniProt P00734); assay: The compound was evaluated for the inhibitory activity against thrombin
Neutrophil elastase = molecular target: T2, Neutrophil elastase (Homo sapiens, UniProt P08246); assay: The compound was evaluated for the inhibitory activity against human neutrophil elastase
T2 sequence (P08246 whole entry): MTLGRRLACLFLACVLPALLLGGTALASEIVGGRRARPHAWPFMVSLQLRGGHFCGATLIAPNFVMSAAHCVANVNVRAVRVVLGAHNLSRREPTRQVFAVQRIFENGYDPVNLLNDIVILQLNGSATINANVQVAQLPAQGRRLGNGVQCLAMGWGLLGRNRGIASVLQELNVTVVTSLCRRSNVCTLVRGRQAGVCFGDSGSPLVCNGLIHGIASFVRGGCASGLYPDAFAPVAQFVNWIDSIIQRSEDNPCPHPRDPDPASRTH

Serine protease 1 = molecular target: T3, Serine protease 1 (Bos taurus, UniProt P00760); assay: The compound was evaluated for the inhibitory activity against trypsin
T3 sequence (P00760 whole entry): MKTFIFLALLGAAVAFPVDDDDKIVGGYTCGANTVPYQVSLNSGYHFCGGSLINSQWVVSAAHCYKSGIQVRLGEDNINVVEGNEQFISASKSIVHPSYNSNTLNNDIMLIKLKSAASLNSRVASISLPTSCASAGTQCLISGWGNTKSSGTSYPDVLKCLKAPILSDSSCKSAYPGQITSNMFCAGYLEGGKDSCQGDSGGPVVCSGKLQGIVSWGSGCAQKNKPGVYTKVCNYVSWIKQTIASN

Cathepsin G = molecular target: T4, Cathepsin G (Homo sapiens, UniProt P08311); assay: The compound was evaluated for the inhibitory activity against cathepsin G
T4 sequence (P08311 whole entry): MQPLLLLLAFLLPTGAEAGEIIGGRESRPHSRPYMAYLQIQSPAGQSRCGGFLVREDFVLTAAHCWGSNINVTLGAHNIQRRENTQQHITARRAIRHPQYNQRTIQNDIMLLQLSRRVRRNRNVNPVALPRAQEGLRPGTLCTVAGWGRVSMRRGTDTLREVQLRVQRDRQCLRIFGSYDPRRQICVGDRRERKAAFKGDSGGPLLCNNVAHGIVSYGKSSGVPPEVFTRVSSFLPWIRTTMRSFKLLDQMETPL

Plasminogen = Plasminogen (Homo sapiens, UniProt P00747); assay: The compound was evaluated for the inhibitory activity against plasmin
Plasminogen, sequence (P00747 97-580 limits assumed): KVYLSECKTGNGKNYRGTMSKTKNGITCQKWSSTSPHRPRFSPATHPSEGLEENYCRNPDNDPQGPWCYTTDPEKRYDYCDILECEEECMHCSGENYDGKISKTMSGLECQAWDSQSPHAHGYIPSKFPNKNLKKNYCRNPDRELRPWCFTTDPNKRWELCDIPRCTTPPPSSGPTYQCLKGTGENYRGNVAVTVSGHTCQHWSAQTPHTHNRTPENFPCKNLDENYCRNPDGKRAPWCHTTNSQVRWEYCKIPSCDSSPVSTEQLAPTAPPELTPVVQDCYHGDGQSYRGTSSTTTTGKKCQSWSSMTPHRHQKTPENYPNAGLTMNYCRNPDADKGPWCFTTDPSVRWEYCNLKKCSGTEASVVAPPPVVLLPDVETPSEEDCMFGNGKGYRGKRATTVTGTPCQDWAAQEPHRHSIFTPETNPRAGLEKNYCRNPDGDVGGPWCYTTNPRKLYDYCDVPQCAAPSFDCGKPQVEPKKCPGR
Plasminogen, sequence (P00747 581-810 limits assumed): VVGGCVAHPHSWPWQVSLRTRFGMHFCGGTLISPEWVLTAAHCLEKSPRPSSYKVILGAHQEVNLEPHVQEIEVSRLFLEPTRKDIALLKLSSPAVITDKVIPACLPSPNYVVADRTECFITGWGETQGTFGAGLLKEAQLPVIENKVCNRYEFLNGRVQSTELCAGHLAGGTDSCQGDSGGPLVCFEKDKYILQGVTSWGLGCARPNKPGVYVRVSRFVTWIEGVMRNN

Row | pIC50 (Chymase) | Compound | further results
1 | < 5.00 | CO[C@@]1(NC(=O)Cc2ccc(-c3ccccc3)cc2)C(=O)N2C(C(=O)OC(c3ccccc3)c3ccccc3)=C(CSc3nnnn3C)CO[C@@H]21 | 
2 | 5.17 | CO[C@@]1(NC(=O)Cc2ccc(Br)cc2)C(=O)N2C(C(=O)OC(c3ccccc3)c3ccccc3)=C(CSc3nnnn3C)CO[C@@H]21 | 
3 | < 5.00 | COc1ccc(C(=O)N[C@]2(OC)C(=O)N3C(C(=O)OC(c4ccccc4)c4ccccc4)=C(CSc4nnnn4C)CO[C@@H]32)cc1 | 
4 |  | COc1ccccc1C(=O)N[C@]1(OC)C(=O)N2C(C(=O)OCc3cccc(C)c3)=C(CSc3nncn3CC(=O)O)CO[C@@H]21 | pIC50 (Prothrombin): 6.37; pIC50 (Neutrophil elastase): < 5.00; pIC50 (Serine protease 1): 6.36; pIC50 (Cathepsin G): 6.64; pIC50 (Plasminogen): < 5.00
5 | 6.82 | CO[C@@]1(NC(=O)Cc2ccc(O)cc2)C(=O)N2C(C(=O)OCc3cccc(C)c3)=C(CCl)CO[C@@H]21 | 
6 | 5.40 | CO[C@@]1(NC(=O)Cc2ccc(O)cc2)C(=O)N2C(C(=O)OCc3cccc(C)c3)=C(CSc3nncn3C)CO[C@@H]21 | 
7 | < 5.00 | CO[C@@]1(NC(=O)Cc2ccc(O)cc2)C(=O)N2C(C(=O)N3CCCC3)=C(CSc3nnnn3C)CO[C@@H]21 | 
8 | < 5.00 | CO[C@@]1(NC(=O)Cc2ccc(O)cc2)C(=O)N2C(C(=O)OCc3cccc(C)c3)=C(C)CO[C@@H]21 | 
9 | 5.77 | CO[C@@]1(NC(=O)c2ccccc2Cl)C(=O)N2C(C(=O)OC(c3ccccc3)c3ccccc3)=C(CSc3nnnn3C)CO[C@@H]21 | 
